Assay results taken from patent publication US10308683B2, “Bicyclic lipolantipeptide, preparation and use as antimicrobial agent” (priority 2015, dated 2019).

Key:
[1] = test system: S. aureus - ATCC 13709 (Fully susceptible); test: MIC, CLSI dilution susceptibility test (aerobic); format: cell-based; details: for Minimal Inhibitory Concentration (MIC): Table 2, S. aureus - ATCC 13709 (Fully susceptible)
Text: Clinical and Laboratory Standards Institute Document M07-A10. • 2. […] Clinical and Laboratory Standards Institute Document M11-A8. • 3.

[2] = test system: S. pneumoniae - ATCC 33400; details: Table 2
Experimental: (§1) Methods for Dilution Antibacterial Susceptibility Tests for Bacteria That Grow Aerobically; Approved Standard—Tenth Edition (2015). Clinical and Laboratory Standards Institute Document M07-A10. • 2. Methods for Antimicrobial Susceptibility Testing of Anaerobic Bacteria; Approved Standard—Eighth Edition (2012). Clinical and Laboratory Standards Institute Document M11-A8. • 3. Antimycobacterial activity was determined as described in Journal of Clinical Microbiology (2009, 47:1773-1780) by Springer et al. Quantitative drug susceptibility testing of Mycobacterium tuberculosis by use of MGIT 960 and EpiCenter Instrumentation.

[3] = test system: S. aureus - ATCC 1683 (Methicillin resistant); details: for Minimal Inhibitory Concentration (MIC): Table 2, S. aureus - ATCC 1683 (Methicillin resistant)
S. aureus - USA300 = details: Table 2
C. difficile ATCC 700057 = details: Table 3, Gram-positive anaerobe
Experimental: as §1

[4] = test system: E. faecium ATCC1858 (Vancomycin (Van) sensitive); details: Table 3, Gram-positive aerobe
Experimental: as §1

P. acnes 1201 = details: Table 3, Gram-positive anaerobe
Experimental: as §1

S. agalactiae 31432663 = details: Table 3, Gram-positive aerobe
Experimental: as §1

[5] = test system: S. epidermidis 37361192 (Methicillin sensitive); details: Table 3, Gram-positive aerobe
Experimental: as §1

S. mitis 39050149 = details: Table 3, Gram-positive aerobe
Experimental: as §1

S. oralis 39151368 = details: Table 3, Gram-positive aerobe
Experimental: as §1

[6] = test system: S. pneumoniae R119 (R6 like) (Penicillin sensitive); details: Table 3, Gram-positive aerobe
Experimental: as §1

S. pyogenes 37352281 = details: Table 3, Gram-positive aerobe
Experimental: as §1

[7] = test system: S. epidermidis 31435861 (Methicillin resistant); details: Table 3, Gram-positive aerobe
[8] = test system: S. pneumoniae 6883 (Penicillin resistant); details: Table 3, Gram-positive aerobe
[9] = test system: E. faecium 31152980 (Van A resistant); details: Table 3, Gram-positive aerobe
[10] = test system: E. faecium 31430797 (Van B resistant); details: Table 3, Gram-positive aerobe
M. tuberculosis H37Rv = details: Table 3, Mycobacteria

SMILES	Minimal Inhibitory Concentration (MIC) [1]	Minimal Inhibitory Concentration (MIC) [2]	Minimal Inhibitory Concentration (MIC) [3]	Minimal Inhibitory Concentration (MIC) (S. aureus - USA300)	MIC ([1]; Table 3, Gram-positive aerobe, S. aureus ATCC13709, Methicillin sensitive)	MIC (C. difficile ATCC 700057)	MIC [4]	MIC (P. acnes 1201)	MIC (S. agalactiae 31432663)	MIC [5]	MIC (S. mitis 39050149)	MIC (S. oralis 39151368)	MIC [6]	MIC (S. pyogenes 37352281)	MIC ([3]; Table 3, Gram-positive aerobe, S. aureus ATCC1683, Methicillin resistant)	MIC [7]	MIC [8]	MIC [9]	MIC [10]	MIC (M. tuberculosis H37Rv)
C/N=C(\NC)NCCCCCCCCCCCCCCC(=O)NC(C)C(=O)NC1CC2(CS/C=C\NC(=O)C(CO)NC(=O)C(CCC(N)=O)NC2=O)NC(=O)CNC(=O)C(CC(C)C)NC1=O (stereo not drawn) [Compound A]	≤0.04 µg/mL	≤0.15 µg/mL	≤0.3 µg/mL	≤0.08 µg/mL																
C/N=C(\NC)NCCCCCCCCCCCCCCCCC(=O)NC(C)C(=O)NC1CC2(CS/C=C\NC(=O)C(CO)NC(=O)C(CCC(N)=O)NC2=O)NC(=O)CNC(=O)C(CC(C)C)NC1=O (stereo not drawn) [Compound C]	≤0.04 µg/mL	≤0.08 µg/mL	≤0.3 µg/mL	≤0.08 µg/mL	≤0.04 µg/mL	≤0.25 µg/mL	≤0.5 µg/mL	≤0.06 µg/mL	≤0.25 µg/mL	≤0.25 µg/mL	≤0.25 µg/mL	≤0.25 µg/mL	≤0.125 µg/mL	≤0.5 µg/mL	≤0.3 µg/mL	≤0.25 µg/mL	≤0.125 µg/mL	≤0.25 µg/mL	≤0.25 µg/mL	≤1 µg/mL
